The results in this text go back to ChEMBL document CHEMBL4196011, “The lead optimization of the polyamine conjugate of flavonoid with a naphthalene motif: Synthesis and biological evaluation” (Eur J Med Chem, 2018).

SMILES strings stand for the structures.

By IC50 is commonly meant the concentration at which inhibition is half-maximal. Lower therefore signals higher potency. Usually MTD stands for the largest dose that counted as tolerated.

One data set relates to HT-29. The experiment in a line: Antiproliferative activity against human HT-29 cells after 48 hrs by MTT assay. The data set is classed as functional, cell-based. Particulars: HT-29, 48 h.
Data set [1] deals with H22. Kind of data set: Antitumor activity against […] xenografted in Kunming mouse assessed as tumor growth inhibition at 10 mg/kg, iv for 7 consecutive days measured on day 16. The data set is classed as functional. Particulars: 384 h, read-out: TGI. (In general: In xenograft studies the graft and the host belong to different species.)
The test system of a further data set is HCT-116. Kind of data set: Antiproliferative activity against human HCT116 cells after 48 hrs by MTT assay. The data set is classed as functional, cell-based. The note with it: HCT-116, 48 h. (In general: Tetrazolium dyes change colour on reduction, which living cells bring about.)
Another data set has as its system HeLa. Kind of data set: Antiproliferative activity against human HeLa cells after 48 hrs by MTT assay. The class given is functional, cell-based.
In a further data set the test system is HepG2. Kind of data set: Antiproliferative activity against human HepG2 cells after 48 hrs by MTT assay. The data set is classed as functional, cell-based. The note with it: HepG2, 48 h.
The test system of another data set is K562. The experiment in a line: Antiproliferative activity against human K562 cells after 48 hrs by MTT assay. The class given is functional, cell-based. Particulars: K562, 48 h.
The nature of data set [2]: Toxicity in iv dosed Kunming mouse assessed as maximum tolerated dose administered for 7 consecutive days. The data set is classed as organism-based. Particulars: in vivo.
Data set [3] has as its system Mus musculus. The experiment in a line: Toxicity in Kunming mouse xenografted with […] H22 cells assessed as effect on liver weight index at 100 mg/kg, ig administered for 7 consecutive days. The note with it: in vivo, po. The class given is organism-based.
For data set [4], the system named is Mus musculus. Kind of data set: Toxicity in Kunming mouse xenografted with […] H22 cells assessed as effect on body weight at 100 mg/kg, ig administered for 7 consecutive days. The data set is classed as organism-based. Particulars: in vivo, po.
Data set [5] has as its system Mus musculus. The experiment in a line: Toxicity in Kunming mouse xenografted with […] H22 cells assessed as effect on lung weight index at 100 mg/kg, ig administered for 7 consecutive days. The data set is classed as organism-based. Particulars: in vivo, po.
Data set [6] has as its system H22. Kind of data set: Antitumor activity against […] xenografted in Kunming mouse assessed as tumor growth inhibition at 100 mg/kg, ig for 7 consecutive days measured on day 16. The note with it: H22, po, 384 h, read-out: TGI. The data set is classed as functional.
The test system of data set [7] is Mus musculus. The experiment in a line: Toxicity in Kunming mouse xenografted with […] H22 cells assessed as effect on kidney weight index at 100 mg/kg, ig administered for 7 consecutive days. The note with it: in vivo, po. The class given is organism-based.
Data set [8] relates to Mus musculus. The experiment in a line: Toxicity in Kunming mouse xenografted with […] H22 cells assessed as effect on heart weight index at 100 mg/kg, ig administered for 7 consecutive days. The data set is classed as organism-based. The note with it: in vivo, po.
Data set [9] has as its system Mus musculus. The experiment in a line: Toxicity in Kunming mouse xenografted with […] H22 cells assessed as effect on spleen weight index at 100 mg/kg, ig administered for 7 consecutive days. Particulars: in vivo, po. The class given is organism-based.
Data set [10] in a line: Toxicity in Kunming mouse assessed as maximum tolerated dose administered for 7 consecutive days. The data set is classed as organism-based. The note with it: in vivo.

Take `COc1c(-c2ccc(-c3ccccc3)cc2)oc2c(CNCCCN)cccc2c1=O.Cl.Cl`: the IC50 in the data set with HT-29 amounted to 8.25 µM; in the data set with HCT-116 it was 5.1 µM; in the data set with HeLa it was 7.8 µM; in the data set on HepG2, 10.4 µM; in the data set on K562 it was 9.3 µM. The inhibition in vivo at 10 mg/kg in the data set with H22 [1] came to 31.5%. Also, the maximal tolerated dose (MTD) at 7 days in [2] came out at 15 mg/kg.

Regarding `O=C1c2c(O)ccc(O)c2C(=O)c2c(NCCNCCO)ccc(NCCNCCO)c21` [MITOXANTRONE], the IC50 in the data set with HT-29 was 21.7 µM; in the data set on HCT-116, 1.61 µM; in the data set on HeLa it was 2.35 µM; with HepG2, 18.6 µM; with K562, 4.55 µM.

`COc1c(-c2ccc(-c3ccccc3)cc2)oc2c(CNCCN)cccc2c1=O`: the IC50 was found to be 18.9 µM in the data set with HT-29; 24.1 µM in the data set on HCT-116; 18.7 µM in the data set on HeLa; 19.9 µM with HepG2; 25.9 µM with K562.

In the case of `COc1c(-c2ccc(-c3ccccc3)cc2)oc2c(CNCCCCN)cccc2c1=O`, the IC50 with HT-29 was 16.1 µM; in the data set on HCT-116, 16.4 µM; in the data set on HeLa it was 10.3 µM; in the data set on HepG2, 16.2 µM; in the data set on K562, 24.4 µM.

With `COc1ccc2cc(-c3oc4c(CNCCCCNCCCCN)cccc4c(=O)c3OC)ccc2c1Br`, the IC50 with HT-29 turned out to be 21.8 µM; in the data set on HCT-116, 19.3 µM; in the data set on HeLa, 9.63 µM; with HepG2, 14.3 µM; in the data set on K562 it was 18.5 µM.

Consider `COc1c(-c2ccc(-c3ccccc3)cc2)oc2c(CNCCCNCCCCN)cccc2c1=O`, for which the IC50 in the data set with HT-29 amounted to 31.4 µM; in the data set with HCT-116, 14.8 µM; with HeLa it was 13.9 µM; in the data set on HepG2, 22.2 µM; in the data set on K562, 15.8 µM.

With `NCCCNCc1c(-c2ccc(-c3ccccc3)cc2)oc2ccccc2c1=O`, the IC50 is 24.7 µM in the data set on HT-29; 23.4 µM with HCT-116; 20.5 µM in the data set on HeLa; more than 50 µM in the data set with HepG2; 41.6 µM with K562.

Turning to `O=c1c(O)c(-c2ccc(O)c(O)c2)oc2cc(O)cc(O)c12` [QUERCETIN], the Activity result in the data set with Mus musculus [3], in the data set with Mus musculus [4], with Mus musculus [5], in the data set with Mus musculus [7], in the data set with Mus musculus [8] and with Mus musculus [9] was “Non-Toxic” in each case. Further, the inhibition in vivo at 100 mg/kg in the data set with H22 [6] was 34.3 to 38.7%.

With `COc1c(-c2ccc(-c3ccccc3)cc2)oc2c(CNCCCCNCCCCN)cccc2c1=O`, the IC50 worked out at 25.6 µM with HT-29; 20.1 µM in the data set with HCT-116; 18.6 µM in the data set with HeLa; 24.4 µM with HepG2; 19.8 µM in the data set on K562.

As for `COc1ccc2cc(-c3oc4c(CNCCCN)cccc4c(=O)c3OC)ccc2c1Br`, the IC50 amounted to 23.1 µM in the data set on HT-29; 12.8 µM in the data set with HCT-116; 11.2 µM in the data set on HeLa; 15.1 µM in the data set with HepG2; 19.2 µM in the data set with K562.

Regarding `Cl.Cl.NCCCNCC(=O)NCc1cccc2c(=O)cc(-c3cccc4ccccc34)oc12`, the maximum tolerated dose (MTD) at 7 days in data set [10] came out at 20 mg/kg.
